Measurements taken from US12576107B2, “Methods of treating chronic inflammatory diseases” (METIMEDI PHARMACEUTICALS CO., LTD., priority 2018, dated 2026).

Assays:
[1] = tested on: LPS-damaged brain of rats; assay: Alzheimer and stroke model, intracranial injection of LPS; type: in vivo, Sprague-Dawley (SD) rats; conditions: 2 mg/kg daily subcutaneous 21 days
Procedure: (§1) Animals. […] Eight-week old male Sprague-Dawley (SD) rats were obtained from Samtako Co. (Osan, Gyeonggi-do, Republic of Korea) and bred under specific-pathogen-free (SPF) conditions. All animals were maintained in a 12-hour light/dark cycle at 22-25° C. with free access to food and water.
Dissolve 1 mg of LPS powder in 1 ml of saline. Keep the tubes on ice if LPS is going to be used fresh. For long storage, screw cap vials are preferred. The aliquots were stored at −20° C. Calcium lactate was purchased from Sigma Aldrich (St. Louis, MO, USA).
Intracranial injection of LPS. The animals were placed in a small acrylic cage that was coupled with an anesthesia machine that allowed them to breathe freely under gaseous anesthesia (2% isoflurane, Spartanburg, SC, USA). […] The animal fur of head was shaved with an electric clipper, and the skin was swabbed with iodine. LPS was kept it on ice before use. All the surgical materials disinfected with 70% ethanol. Hamilton syringe barrel inner space was cleaned with distilled water and 70% ethanol. The Hamilton syringe was placed in the syringe holder. The animal in the stereotaxic apparatus was placed on horizontal position. A midline incision (about 1 cm) on the skin of head was made with the scalpel. The needle of Hamilton syringe was placed on the bregma. Read the three coordinates (AP: −3.6, LM: 2.0, and DV: −3.8) on the manipulator (in mm) and write them down; this was used for starting point. Slowly, set the DV coordinate of the injection point; this inserts the needle tip into the brain until the injection point. The LPS solution (2 μl) was released at an approximate flow rate of 0.5 μl/min. After the injection, the needle was removed very slowly. The wound area was closed by suturing, and then disinfectant was applied. The rat was marked for further identification.
Immunohistochemistry. Brain tissue was sectioned at 5 μm on cryostat and stained for histological examination. Microscopic images were obtained at 200× magnification. […]

lactate dehydrogenase B = assay: Human fibroblast in vitro experiment, Western blot in CCD-18Co cells; type: cell-based; conditions: 2.5 mM; CCD-18Co cells (human colon fibroblast); hypoxia
Procedure: Human Colon Fibroblast cell line, CCD-18-Co, was purchased from American Type Culture Collection (Manassas, VA, USA). The CCD-18Co cells were maintained in DMEM containing 10% fetal bovine serum (Life Technologies, Gaithersburg, MD, USA), 100 IU/ml penicillin, and 100 μg/ml streptomycin (Welgene, Daegu, South Korea).
To prepare whole cell lysate, cells were lysed with lysis buffer (1% NP-40, 0.25% sodium deoxycholate, 150 mM NaCl, 1 mM EDTA, 1% Triton X-100, 50 mM Tris-HCl (pH 7.4), 10% Glycerol) with protease inhibitor cocktail (Roche, Basel, Switzerland) and phosphatase inhibitors (NA3VO4 1 mM, NaF 100 mM). Then, protein concentration was measured using the Bicinchoninic acid (BCA) assay kit (Thermo Scientific, Waltham, MA). Whole cell or nuclear lysates were transferred onto polyvinylidene fluoride membranes (Merck Millipore, Billerica, MA, USA). After blocking in 5% non-fat milk (Bio-Rad, Hercules, CA, USA) for 1 h, the membranes were incubated overnight at 4° C. with primary antibody diluted in TBST containing 100 mM Tris-HCl (pH 7.5), 1.5 M NaCl, and 0.5% Tween-20 obtained from Sigma-Aldrich, to which 5% BSA and 0.1% sodium azide (Sigma-Aldrich) had been added. Specific primary antibodies to HIF-1α (1:1000), HIF-2α (1:1000), LDH-A (1:1000), LDH-B (1:1000), TLR-4 (1:1000), NF-κB (1:1000), VEGF (1:1000), α-tubulin (1:1000), Actin (1:1000), and GAPDH (1:5000). […]

[2] = tested on: collagen-induced rheumatoid arthritis mice; assay: Rheumatoid arthritis model, Type II collagen induction; type: in vivo, DBA1/J mice; conditions: 21 days after treatment
Procedure: Animals. […] Six-week old male DBA1/J mice were obtained from Japan SLC Inc. (Shizuoka, Japan) and bred under specific-pathogen-free (SPF) conditions. All animals were maintained in a 12-hour light/dark cycle at 22-25° C. with free access to food and water.
Preparation of agents. Two mg/mL Type II collagen was mixed with the same volume of complete Freund's adjuvant (CFA) for primary induction of rheumatoid arthritis. Two mg/mL Type II collagen was mixed with the same volume of incomplete Freund's adjuvant (IFA) for secondary induction of rheumatoid arthritis.
Primary induction: 0.1 mL of the mixed solution (Type II collagen+CFA) was injected subcutaneously into the area of 1.5 cm from the base of tail of mice. The administration site and depth were the same in all mice.
Secondary induction: 21 days after primary induction, 0.1 mL of the mixed solution (Type II collagen+IFA) was injected subcutaneously into the area of 1.5 cm from the base of tail of mice. The administration site and depth were the same in all mice.
Histological analysis. The mice foot and knee joint were dissected and fixed (4% paraformaldehyde) and decalcified for 2 days at 4° C. […] Mount with mounting medium.

[3] = tested on: LPS-induced periodontal disease rats; assay: Periodontal disease model, intragingival injection of LPS; type: in vivo, Sprague-Dawley (SD) rats; conditions: 2 mg/kg daily subcutaneous 21 days
Procedure: as §1
Dissolve 1 mg of LPS powder in 100 μl of saline. Keep the tubes on ice if LPS is going to be used fresh. For long storage, use screw cap vials are preferred. The aliquots were stored in a deep freezer (−20° C.). Calcium lactate was purchased from Sigma Aldrich (St. Louis, MO, USA).
Animal model for periodontal disease. Periodontal disease was induced by intragingival injection of LPS (1 mg/100 μl) in sterile saline. A fine hypodermic needle was inserted at the mesiolateral aspect of the first right mandibular molar and the tip moved distally so that the injection was made at the interdental papilla between the first and second molars. The injection was slowly made, and the needle held in place for 10 seconds post injection to ensure that the LPS was not lost through the needle track.
Histological analysis. […] Mount with mounting medium.

Compound: CC(O)C(=O)[O-].CC(O)C(=O)[O-].[Ca+2] (centres unmarked) [calcium lactate]
- damaged brain tissue [1]: Recovery
- inflammatory reaction, which exacerbates Alzheimer's and stroke [1]: greatly reduced
- microglia infiltration (Iba-1) in brain [1]: reduction
- lactate dehydrogenase B, Western blot (lactate dehydrogenase B): increased
- inflammatory edema in the toes and knee joint ([2]; 2 mg/kg daily subcutaneous): clearly decreased
- morphology of toes and knee joint vs. normal control [2]: morphologically recovered
- ligaments and gingiva around the root of tooth (Masson's trichrome) [3]: recovered
- morphology of the upper gum (Masson's trichrome) [3]: recovered
